According to patent US12404268B2, “2-heteroaryl aminoquinazolinone derivative” (Sumitomo Pharma Co., Ltd., priority 2020, dated 2025):

Columns and labels:
[1] = system: male Slc:ddY mice (pentetrazol-induced clonic seizure); assay: Model subcutaneously injected with pentetrazol (minimum seizure model, scPTZ); assay type: in vivo, mouse; conditions: 85 mg/kg pentetrazol s.c. 1 hour after oral dosing, observed 30 minutes
Method: Evaluation of Model Subcutaneously Injected with Pentetrazol (Minimum Seizure Model, scPTZ)
This test evaluates the antiseizure effect of a medicament. The animal model used in this test is a phenotype of generalized absence seizure or myoclonic seizure. The test compound was orally administered to male Slc:ddY mice (group of five, body weight: 20 to 30 g), and 85 mg of pentetrazol/kg was subcutaneously administered 1 hour later. The presence/absence of expression of clonic seizure during 30 minutes was then observed. The dose at which […] (ED50) was calculated. 0.5% methylcellulose solution was administered for the control.

[2] = system: male Slc:ddy mice; assay: Rotarod evaluation (motor coordination); assay type: in vivo, mouse; conditions: rotarod 15 rpm, 50 minutes after oral dosing, 180 seconds
Method: The test evaluates the effect of suppressing the ability of motor coordination of a medicament. Male Slc:ddy mice (body weight: 20 to 30 g) were trained to walk for 5 minutes with a rotarod apparatus (apparatus for rotating a cylindrical bar with a 4 cm diameter, 12 rpm) on the day of the test. A test compound was orally administered to a group of 5 mice. […] Animals that fell off within 180 seconds due to incoordination were counted. […] 0.5% methylcellulose solution was administered for the control.

[3] = system: neurons induced to differentiate from SCN1A gene deficient human iPS cells; assay: Test for measuring hyperexcitation suppression activity (spontaneous calcium oscillation frequency); assay type: cell-based; conditions: Neuron; for inhibition at 0.1 µM / inhibition at 1 µM / inhibition at 10 µM: Homo sapiens, read-out: inhibition rate; for IC50: SCN1A gene deficient human iPS cell-derived neurons, FLIPR Calcium 6, FDSS7000EX, read-out: IC50 (50% inhibitory concentration, frequency of spontaneous calcium oscillation)
How it was run: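 SCN1A-deficient iPS-derived neurons used from day 60 of differentiation, loaded 30 min with Calcium 6 probe. Compounds at final 0.1–100 μM; spontaneous calcium oscillation frequency recorded on FDSS7000EX, with the last 2 of 8 min post-addition expressed relative to the 2 min baseline.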

[4] = system: SCN1A loss-of-function genetic mutation mice (epileptic spike); assay: Evaluation of epileptic spike using SCN1A-mutated animal; assay type: in vivo, mouse; conditions: F1 SCN1A-mutated mice; spike frequency over 3 hours before and after administration
Method: Evaluation of Epileptic Spike Using SCN1A-Mutated Animal
This test evaluates the inhibitory effect of a medicament on epileptic spike expressed with an SCN1A loss-of-function genetic mutation.
Febrile seizure was induced in the SCN1A-mutated mice (6 to 10 week old) described above from increasing the body temperature by placing and continuously incubating the mice in a plastic chamber whose internal temperature was increased by incubation using a warm bath of about 43° C. After two weeks from inducing febrile seizure, a head mount (cat #8201-SS, Pinnacle Technology) was mounted on the head of the mice. Two weeks after mounting the head mount, the F1 SCN1A loss-of-function genetic mutation mice (25 to 32 g) were connected to a seizure EEG recording system (Pinnacle Technology), and the test compound was administered. The epileptic spike frequency over 3 hours before and after administration of the compound was measured, and the dose at which epileptic spike frequency is suppressed to 50% after the administration (ED50) was calculated.

[5] = system: male Slc:ddY mice (electroshock-induced tonic extensor seizure); assay: Maximal electroshock seizure (MES) model; assay type: in vivo, mouse; conditions: corneal stimulation 60 Hz, 50 mA, 0.2 seconds 1 hour after oral dosing
Method: Evaluation of Maximal Electroshock Seizure (MES) Model
This test evaluates the antiseizure effect of a medicament in the same manner as Test Example 3. The animal model used in this test is a phenotype of generalized tonic-clonic seizure and secondary generalized partial seizure. The test compound was orally administered to male Slc:ddY mice (group of five, body weight: 20 to 30 g), and electrical stimulation (60 Hz, 50 mA, 0.2 seconds) was applied through the cornea 1 hour later. Suppression of induced expression of tonic extensor seizure of the rear limb was observed. The dose at which […] (ED50) was calculated. 0.5% methylcellulose solution was administered for the control.

Row | Structure (SMILES) | ED50 (clonic seizure) [1] | TD50 (dosage at which 50% of animals fall off) [2] | inhibition at 0.1 µM [3] | ED50 (dose at which epileptic spike frequency is suppressed to 50%) [4] | inhibition at 1 µM [3] | ED50 (tonic extensor seizure) [5] | IC50 [3] | inhibition at 10 µM [3]
1 | Cc1ccccc1-n1c(Nc2cccnc2)nc2ccc(C#N)cc2c1=O [Example 109, 4-oxo-2-(pyridin-3-ylamino)-3-(o-tolyl)-3,4-dihydroquinazoline-6-carbonitrile] | 0.25 mg/kg, p.o. | 2.0 mg/kg, p.o. | 59% | 0.19 mg/kg, p.o. |  |  |  | 
2 | O=c1c2cc(F)cc(F)c2nc(Nc2cccnc2)n1-c1ccccc1 [Example 32, 6,8-difluoro-3-phenyl-2-(pyridin-3-ylamino)quinazolin-4(3H)-one] | 4.17 mg/kg, p.o. | 8.83 mg/kg, p.o. |  | 1.48 mg/kg, p.o. | 80% |  |  | 
3 | O=c1c2cc(F)ccc2nc(Nc2cncc(F)c2)n1-c1ccccc1 [Example 40, 6-fluoro-2-((5-fluoropyridin-3-yl)amino)-3-phenylquinazolin-4(3H)-one] | 0.27 mg/kg, p.o. | 1.8 mg/kg, p.o. |  | 0.12 mg/kg, p.o. | 100% | 0.56 mg/kg, p.o. |  | 
4 | Cc1ccccc1-n1c(Nc2cncc(F)c2)nc2ccc(C#N)cc2c1=O [Example 114, 2-((5-fluoropyridin-3-yl)amino)-4-oxo-3-(o-tolyl)-3,4-dihydroquinazoline-6-carbonitrile] | 0.065 mg/kg, p.o. | 0.2 mg/kg, p.o. | 55% | 0.044 mg/kg, p.o. |  |  |  | 
5 | O=c1c2ccccc2nc(Nc2cccnc2)n1-c1ccccc1 [Example 14, 3-phenyl-2-(pyridin-3-ylamino)quinazolin-4(3H)-one] | 4.17 mg/kg, p.o. | 7.38 mg/kg, p.o. |  | 5.83 mg/kg, p.o. |  |  | 1800 nM | 
6 | N#Cc1ccc2nc(Nc3cccnc3)n(-c3ccccc3)c(=O)c2c1 [Example 3, 4-oxo-3-phenyl-2-(pyridin-3-ylamino)-3,4-dihydroquinazoline-6-carbonitrile] | 0.74 mg/kg, p.o. | 2.0 mg/kg, p.o. |  | 0.66 mg/kg, p.o. | 97% |  |  | 
7 | O=c1c2cc(F)ccc2nc(Nc2cccnc2)n1C1(c2ccccc2)CC1 [Example 153] |  |  |  |  | 99% |  |  | 
8 | O=c1c2cc(F)ccc2nc(Nc2cccnc2)n1C1CCCCC1 [Example 61] |  |  |  |  |  |  |  | 79%
9 | O=c1c2cc(F)ccc2nc(Nc2cccnc2)n1CC1CCCCC1 [Example 155] |  |  |  |  |  |  |  | 81%
10 | O=c1c2cc(F)ccc2nc(Nc2cccnc2)n1-c1ccccc1 [Example 12, 6-fluoro-3-phenyl-2-(pyridin-3-ylamino)quinazolin-4(3H)-one] | 0.25 mg/kg, p.o. | 1.8 mg/kg, p.o. |  | 0.18 mg/kg, p.o. |  | 0.56 mg/kg, p.o. | 200 nM | 
11 | O=c1c2cc(F)ncc2nc(Nc2cccnc2)n1CCc1ccccn1 [Example 197] |  |  |  |  |  |  | > 10000 nM | 
